In publication PMC9184463, “Structural basis of ligand binding modes of human EAAT2” (Nature Communications, 2022):

Target: T1, hEAAT2 mutant D475A (Homo sapiens, UniProt P43004, D475A)
T1 construct: Strep Tag II (N); superfolder GFP (sfGFP) (N); expressed in transfected cells; host or cells: HEK293T
Experiment: whole-cell patch-clamp, hEAAT2 mutant D475A in HEK293T cells
Assay type: cell-based
Conditions: 0 mV; for WAY-213613-inhibited current, normalized (MEAN): D475A
Protocol: Human embryonic kidney 293T (HEK293T) cells were cultured in Dulbecco’s Modified Eagle Medium (DMEM, Gibco) media supplemented with 15% (v/v) fetal bovine serum (FBS, PAN-Biotech) at 37 °C with 5% CO2. HEK293T cells were grown in the culture dishes (d = 3.5 cm) (Thermo Fisher Scientific) for 24 h and then 1 μg hEAAT2 wild-type and mutant plasmids for per dishes were used to transiently transfect HEK293T using 0.7 μg Lipofectamine 2000 Reagent (Thermo Fisher Scientific). Cells were analyzed using electrophysiological experiments between 24 and 40 h after transfection at room temperature (21–25 °C).
Electrophysiological experiments were performed as described previously with a minor modification. External buffer contained 140 mM NaCl, 2 mM MgCl2, 2 mM CaCl2, and 10 mM HEPES (pH = 7.4 with NaOH and osmolarity of ∼310 mosmol L^−1) and while internal pipette solution comprised of 130 mM NaSCN, 2 mM MgCl2, 10 mM EGTA, 10 mM HEPES (pH = 7.4 with NaOH and osmolarity of ∼310 mosmol L^−1) and 10 mM glutamate. 50 mM WAY-213613 stock solutions were prepared in dimethyl sulfoxide (DMSO), followed by dilutions to working concentrations with the above-mentioned external buffer. […] Whole cell patch-clamp experiment recordings were made from isolated GFP-positive HEK293T cells (hEAAT2 wild type and mutants). In all, 3–6 MΩ was used to fire a polished pipette (Sutter Instrument). […] Cells were immersed in the above-mentioned external buffer supplemented with a specified concentration of glutamate or WAY-213613. Glutamate-induced anion current, Na^+-dependent anion leak current and glutamate transport current or WAY-213613 inhibited anion leak currents were recorded using an EPC-10 amplifier (HEKA Electronic) at a 20 kHz sample rate with low pass filter at 5 kHz. All experiments were executed at 0 mV. After the cell current was stabilized, glutamate or WAY-213613 was sustained at the indicated concentrations from external dosing for at least 6 s. Subsequently, the cell was washed away with external buffer to start a new round of applications or end the experiment. The plateau currents were used for the following calculations. For analysis, the data was acquired by PatchMaster program (HEKA Electronic) at 5 s after recording. Nonlinear dose–response relationships were fitted into a Michaelis–Menten-like equation shown as below to obtain the apparent Km and Ki values in the presence of glutamate or WAY-213613.1 I/Imax=Km/i/C+Km/i In this equation, I represent the current at different glutamate or inhibitor concentrations, and Imax represents the maximal current at the saturating concentration of glutamate or inhibitor. [C] represents the concentration of glutamate or inhibitor. Km/i represents the apparent constant.

T1 sequence (P43004 whole entry D475A): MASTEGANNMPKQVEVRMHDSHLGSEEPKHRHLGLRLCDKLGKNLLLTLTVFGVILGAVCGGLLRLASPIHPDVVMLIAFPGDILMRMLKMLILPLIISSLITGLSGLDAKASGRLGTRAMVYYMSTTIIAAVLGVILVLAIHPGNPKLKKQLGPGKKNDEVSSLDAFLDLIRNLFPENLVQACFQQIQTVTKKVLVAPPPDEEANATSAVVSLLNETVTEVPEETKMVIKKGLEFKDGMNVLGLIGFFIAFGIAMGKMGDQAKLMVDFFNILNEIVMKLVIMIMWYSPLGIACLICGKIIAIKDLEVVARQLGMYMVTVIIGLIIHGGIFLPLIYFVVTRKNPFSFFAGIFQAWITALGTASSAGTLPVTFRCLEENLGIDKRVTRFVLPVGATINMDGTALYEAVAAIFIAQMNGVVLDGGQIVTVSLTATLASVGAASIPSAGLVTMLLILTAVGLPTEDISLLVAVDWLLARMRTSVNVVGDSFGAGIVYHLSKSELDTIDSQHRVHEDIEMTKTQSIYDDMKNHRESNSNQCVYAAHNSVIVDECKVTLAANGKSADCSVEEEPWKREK

With `NC(CC(=O)Nc1ccc(Oc2cc(F)c(F)cc2Br)cc1)C(=O)O` (stereo not shown) [WAY-213613] the “WAY-213613-inhibited current, normalized (MEAN)” value (0.3 μM WAY-213613, normalized to current at 100 μM) was 0.06104, the “WAY-213613-inhibited current, normalized (MEAN)” value (1 μM WAY-213613, normalized to current at 100 μM) was 0.08742 and the “WAY-213613-inhibited current, normalized (MEAN)” value (3 μM WAY-213613, normalized to current at 100 μM) was 0.1387. The “WAY-213613-inhibited current, normalized (MEAN)” value (10 μM WAY-213613, normalized to current at 100 μM) was 0.2967, the “WAY-213613-inhibited current, normalized (MEAN)” value (30 μM WAY-213613, normalized to current at 100 μM) was 0.647 and the “WAY-213613-inhibited current, normalized (MEAN)” value (100 μM WAY-213613, normalization reference) was 1. For the same molecule, the Ki (D475A mutant, read-out: apparent Ki) was 30.5 µM.
